The values below come from patent EP0308913A2, “2,6-Methanopyrrolo-3-benzazocines, a process and intermediates for their preparation and their use as medicaments” (HOECHST-ROUSSEL PHARMACEUTICALS INCORPORATED, priority 1987, dated 1989).

This test concerns mice. Nature of the test: modified phenyl-p-quinone writhing assay in mice (analgesia). As to conditions: Mus musculus, sc; male CD-1 mice; test compound s.c. at peak time before phenyl-p-quinone; calculated ED50 by linear regression; read-out: Analgesic Activity (Inhibition of Writhing ED5Ø (mg/kg, s.c.)) (converted). Format: in vivo. How it is done: The 2,6-methanopyrrolo-3-benzazocines of this invention are useful as analgetics due to their ability to alleviate pain in mammals. The procedure employed to determine analgetic utility is a modification of the phenyl-p-quinone writhing assay in mice, a standard assay for analgesia [Proc. Soc. Exptl. Bio. Med., 95 729 (1957)]. In the modified procedure phenyl-p-benzoquinone (Eastman, 12.5 mg) is dissolved in 5 ml of 95% ethanol and the solution is diluted to a total volume of 100 ml with distilled water. The solution is administered to the subject mice […] at a dose of 10 ml per kg of body weight. A characteristic "writh", an inward rotation of one or more feet with twisting and turning of the trunk, drawing in of the abdominal wall, lordosis and arching of the back, is produced.
A total of 28 male mice (Charles River, CD-1), weighing 18 to 30 grams, are employed for a time response. The subject animals receive food and water ad libitum. Test compounds are dissolved in distilled water, or suspended in distilled water containing one drop of a suitable surfactant, such as Tween-80.
Four groups of five animals (20 animals) are given the test compound subcutaneously at 15, 30, 45 and 60 minutes prior to administration of the phenyl-p-quinone. Four control groups of 2 animals (8 animals) receive an equal volume of the vehicle. After the administration of the phenyl-p-quinone, the mice are placed separately in one liter beakers, and after five minutes, are observed for ten minutes. The number of writhes for each animal is recorded. The following formula is used to compute the percent inhibition: [formula]
The time period with the greatest percent of inhibition is considered the peak time. A dose range determination is generally reserved for those compounds which inhibit writhing by greater than 65-70% at the screening dose.
A dose range determination is run in the same manner as the time response except 10 animals per group are tested at the peak time of test drug activity. Fifty animals, 4 test drug groups, and a vehicle control are employed. Animals are dosed and tested in a randomized manner. A calculated ED₅₀, i.e., the dose at which 50% inhibition of writhing is produced, is determined by a computer linear regression analysis. The calculated subcutaneous (s.c.) dose effecting an approximately 50% inhibition of writhing (ED₅₀) in mice produced in this assay is as follows: […]
For `CC1C2Cc3cc4[nH]ccc4cc3C1(C)CCN2C` (stereo not shown) [1,2,3,4,5,6-hexahydro-3,6,12-trimethyl-2,6-methano-10H-pyrrolo[3,2-i][3]benzazocine], the ED50 was 1.8 mg/kg.

With `CC1C2Cc3c(ccc4[nH]ccc34)C1(C)CCN2C` (stereo not shown) [1,2,3,4,5,6-Hexahydro-3,6,12-trimethyl-2,6-methano-9H-pyrrolo[2,3-j][3]benzazocine], the ED50 was 30.4 mg/kg.

As to `CC(C)=CCN1CCC2(C)c3cc(O)ccc3CC1C2C` (stereo not shown) [pentazocine, reference compound], the ED50 is 1.3 mg/kg.

`CC1C2Cc3cc4c(cc3C1(C)CCN2C)NCC4` (stereo not shown) [1,2,3,4,5,6,9,10-Octahydro-3,6,12-trimethyl-2,6-methano-8H-pyrrolo[2,3-i][3]benzazocine]: the ED50 was 35.5 mg/kg.

For the molecule `CC1C2Cc3ccc4[nH]ccc4c3C1(C)CCN2C` (stereo not shown) [1,2,3,4,5,6-hexahydro-3,6,12-trimethyl-2,6-methano-9H-pyrrolo[3,2-h][3]benzazocine], the ED50 is 0.6 mg/kg.

In the case of `CC1C2Cc3cc4cc[nH]c4cc3C1(C)CCN2C` (stereo not shown) [1,2,3,4,5,6-Hexahydro-3,6,12-trimethyl-2,6-methano-8H-pyrrolo[2,3-i][3]benzazocine], the ED50 is 29.5 mg/kg.

On to `CC1C2Cc3c(ccc4c3C(=O)C(=O)N4)C1(C)CCN2C` (stereo not shown) [1,2,3,4,5,6-Hexahydro-3,6,12-trimethyl-2,6-methanopyrrolo[2,3-j][3]benzazocine-10,11(9H)-dione], for which the ED50 is 24.3 mg/kg.
